Measurements published in patent US7989466B2, “Methods to inhibit or augment an inflammatory response” (Cambridge Enterprise Limited, priority 1999, dated 2011).
≈ marks a conversion by molar mass, not a printed value. Positions of bridges follow the written chain, without caps; N, C: chain ends. Non-standard residues stand in square brackets, D forms with d. Residues, ends and D or L forms follow the SMILES beside them.

Experiments:
CD4 T cells = settings: 5 ng
[1] = test system: LPS- and MCP-1-induced dermal inflammation; assay: Rat dermal inflammation model (MCP-1 / LPS intradermal); assay type: in vivo
Description: To assess the efficacy of an agent of the invention in the prevention of lipopolysaccharide (LPS)- and MCP-1-induced dermal inflammation in the rat, three different doses of CRD-Leu4Ile11Cys13peptide 3(3-12)[MCP-1] were administered. An inflammatory response was elicited by intradermal injection (ventral abdomen) of either 500 ng MCP-1 or 100 ng MCP-1 along with endotoxin-free phosphate-buffered saline vehicle (as a negative control) and bacterial lipopolysaccharide (LPS; as a positive control). Each substance was injected at a different site. The results obtained from animals were compared to CRD-Leu4Ile11Cys13 peptide 3(3-12)[MCP-1] treated, and PBS (diluent control) treated, animals. […] The intradermal sites of agonist injection were collected, bisected and the extent of the inflammatory response was assessed by histopathology and quantitative immunofluorescence (fixed and frozen) (for example, following MCP-1 injection, the number of monocyte/macrophages in the skin was determined using the anti-CD14 (MCA342 from Serotec; clone ED2) at 3 μg/ml overnight at 4° C. The second antibody was rat anti-mouse FITC (415-096-100 from Jackson ImmunoResearch) at 28 μg/ml for 6 hours at room temperature). […]

[2] = test system: MCP-1 co-mitogenic effect, cultured smooth muscle cells; assay: Co-mitogenic effect of MCP-1 on cultured smooth muscle cells; assay type: cell-based; settings: 100 μM; MCP-1 with 0.5% fetal calf serum
Description: Many chemokines are co-mitogenic with low concentrations of FCS, e.g., 50 ng/ml MCP-1+0.5% FCS is a mitogen for smooth muscle cells. Assays well known to the art for determination of DNA synthesis induced by any known chemokine plus a low concentration (<5%) of FCS on suitable cells (e.g., smooth muscle cells) in the presence and absence of the agent may be employed to screen agents for such inhibitory activity. See Porreca et al., J. Vasc. Res., 34, 58 (1997), the disclosure of which is incorporated by reference herein.
Peptide 3(1-12)[MCP-1] […] MCP-1 has been reported to be a weak co-mitogen with 0.5% fetal calf serum for cultured smooth muscle cells. […] (SEQ ID NO:1) is an MCP-1 receptor antagonist. The observation that peptide 3(1-12)[MCP-1]

For `CC[C@@H](C)[C@H]1NC(=O)[C@@H](CCC(N)=O)NC(=O)[C@H](N)CSSC[C@H](C(N)=O)NC(=O)[C@@H](CC(C)C)NC(=O)[C@@H](CC(=O)O)NC(=O)[C@H]2CCCN2C(=O)[C@@H](CCCCN)NC(=O)[C@@H](CCC(N)=O)NC(=O)[C@@H](CCCCN)NC(=O)[C@@H](Cc2c[nH]c3ccccc23)NC1=O` (H-[dC][dQ][dI][dW][dK][dQ][dK][dP][dD][dL][dC]-NH2; disulfide 1-11; N-terminus assumed), the “reduction of ConA proliferation of CD4 T cells” value (CD4 T cells) was under 3%, the “recruitment of B-cells to the site of the LPS injection” value ([1]; rat skin) was “substantially inhibited” and the “MCP-1 induced recruitment of monocyte/macrophages in rat skin” value ([1]; systemic treatment 30 minutes before intradermal MCP-1) was “completely abolished”.
Work on `C=CCCCCCCCCC(=O)N[C@H]1CCC(=O)NC1=O` [A-I (NR58.4), [3S]-3-(undec-10-enoylamino)piperidine-2,6-dione] yielded a pKa (physchem) of about 11, a solubility (physchem; organic solvent or mixture) of over 200000 µg/mL and a solubility (physchem; pH 11, water) of 5000 µg/mL (≈ 17 mM).
With EICADPKQKWVQ [peptide 3(1-12)[MCP-1]] the “effect on the co-mitogenic effect of MCP-1 for cultured smooth muscle cells” value [2] was “completely abolished”.
